Measured values reported in patent US8735601B2, “Pentamethine cyanine fluorescent dye with N-substituting at β-position of conjugated chain” (Dalian University of Technology, priority 2010, dated 2014).

Legend:
[1] = Absorption and emission spectra of dyes in different solvents; assay type: physicochemical; set-up: key to Δλ1 / Δλ2: Stokes shift in nm; ε1 (molar extinction coefficient) / ε2 (molar extinction coefficient): scale not given here; conditions: for Δλ1: Stokes shift to absorption peak 1; for Δλ2: Stokes shift to absorption peak 2
From the text: In the present invention, compounds IIa to IIg were synthesized based on compound II, and their spectral properties were investigated. Compared with the traditional pentamethine cyanine dye, for the novel pentamethine cyanine dye with N-substituting at β-position (deviated position), it was observed that, evident blue shift of absorption and emission wavelengths occurred, absorption wavelength blue shifted even largely than that of emission wavelength, absorption spectrum and fluorescence spectrum were no longer mirror-symmetric and had two absorption peaks and a single emission peak, and larger Stokes shift (minimum 60 and 150 nm, and maximum 90 and 230 nm) appeared.

[2] = biological target: bovine serum albumin (BSA) (Bos taurus, UniProt P02769); test: Titration of dye solution with BSA, fluorescence and UV absorption; assay type: binding; conditions: dye solution 1 μM, PBS pH 7.4; listed as Ha
bovine serum albumin (BSA), sequence (P02769 25-607): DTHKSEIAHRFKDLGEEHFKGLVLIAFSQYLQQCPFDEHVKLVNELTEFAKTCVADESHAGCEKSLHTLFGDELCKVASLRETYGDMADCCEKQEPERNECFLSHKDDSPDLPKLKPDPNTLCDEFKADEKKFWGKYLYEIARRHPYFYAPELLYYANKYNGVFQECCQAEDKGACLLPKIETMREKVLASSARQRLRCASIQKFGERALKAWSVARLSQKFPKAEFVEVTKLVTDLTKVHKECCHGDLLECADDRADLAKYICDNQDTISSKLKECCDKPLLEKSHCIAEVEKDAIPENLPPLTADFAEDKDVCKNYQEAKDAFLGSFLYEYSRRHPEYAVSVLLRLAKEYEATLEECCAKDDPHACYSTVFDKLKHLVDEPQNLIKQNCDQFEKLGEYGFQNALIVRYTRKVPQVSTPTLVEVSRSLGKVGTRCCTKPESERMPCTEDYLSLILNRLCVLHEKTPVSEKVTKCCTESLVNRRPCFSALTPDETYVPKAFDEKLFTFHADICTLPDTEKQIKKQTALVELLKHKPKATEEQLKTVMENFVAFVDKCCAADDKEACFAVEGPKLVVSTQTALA
Method: (§1) The solutions of compounds Ha to IIc in a concentration of 1×10^−6M (10 mM PBS buffer (pH=7.4) was used as solvent) was prepared, and 3 ml of the each dye solution was added into a cuvette, respectively. Then, an aqueous bovine serum albumin (BSA) stock solution with the concentration of 50 μg/μL (750 μM) was added dropwise into each of the dye solution. The fluorescence intensity of the dye was measured each 5 minutes after addition of BSA for fluorescence becoming stable, on UV-visible spectrophotometer (Mode: Hp8453) and fluorescence spectrophotometer (Mode: FP-6500).
Especially for dyes IIb and IIc, the fluorescence intensity thereof was increased linearly with addition of BSA to arrive at more than 30 folds.

[3] = Measurement of fluorescence quantum yield (Rhodamine B in ethanol as reference); assay type: physicochemical
[4] = system: calf thymus DNA (ct-DNA); test: Titration of dye solution with calf thymus DNA, fluorescence and UV absorption; assay type: binding; conditions: dye 1×10^−6 M, PBS pH 7.4; listed as Ha
Method: as §1, with “cuvette separately.” for “cuvette, respectively.”, “calf thymus DNA” for “bovine serum albumin (BSA)”, “was prepared,” for “with”, “the calf thymus DNA stock solution was determined as 1.5×10^−3 mM by the absorbance at 260 nm on UV absorption spectrophotometer. The calf thymus DNA stock solution” for “50 μg/μL (750 μM)”
From the interaction results of three dyes with calf thymus DNA, it can be known that no evident fluorescence increase was found after the interaction of the dye with the DNA. FIGS. 4 and 5 were titration figures of the interaction of dye lib with calf thymus DNA. […] All of these indicated DNA could be differentiated from protein by dyes IIa, IIb and IIc.

Δλ1 ([1]; solvent DCM): 63
Δλ1 ([1]; solvent DMSO): 75
Δλ1 ([1]; solvent Ethanol): 75
Δλ1 ([1]; solvent Methanol): 78
Δλ1 ([1]; solvent THF): 64
Δλ1 ([1]; solvent Water): 92
Δλ2 ([1]; solvent DCM): 191
Δλ2 ([1]; solvent DMSO): 189
Δλ2 ([1]; solvent Ethanol): 182
Δλ2 ([1]; solvent Methanol): 188
Δλ2 ([1]; solvent THF): 182
Δλ2 ([1]; solvent Water): 203
ε1 (molar extinction coefficient) ([1]; solvent DCM): 5.4 cm^−1M
ε2 (molar extinction coefficient) ([1]; solvent DCM): 1.6 cm^−1M
λabs1 ([1]; solvent DCM): 546 nm
λbs2 ([1]; solvent DCM): 418 nm
λem ([1]; solvent DCM): 609 nm
ε1 (molar extinction coefficient) ([1]; solvent DMSO): 4.9 cm^−1M
ε2 (molar extinction coefficient) ([1]; solvent DMSO): 1.7 cm^−1M
λabs1 ([1]; solvent DMSO): 533 nm
λbs2 ([1]; solvent DMSO): 419 nm
λem ([1]; solvent DMSO): 608 nm
ε1 (molar extinction coefficient) ([1]; solvent Ethanol): 4.8 cm^−1M
ε2 (molar extinction coefficient) ([1]; solvent Ethanol): 2.0 cm^−1M
λabs1 ([1]; solvent Ethanol): 527 nm
λbs2 ([1]; solvent Ethanol): 420 nm
λem ([1]; solvent Ethanol): 602 nm
ε1 (molar extinction coefficient) ([1]; solvent Methanol): 5.1 cm^−1M
ε2 (molar extinction coefficient) ([1]; solvent Methanol): 2.0 cm^−1M
λabs1 ([1]; solvent Methanol): 528 nm
λbs2 ([1]; solvent Methanol): 418 nm
λem ([1]; solvent Methanol): 606 nm
ε1 (molar extinction coefficient) ([1]; solvent THF): 4.8 cm^−1M
ε2 (molar extinction coefficient) ([1]; solvent THF): 1.6 cm^−1M
λabs1 ([1]; solvent THF): 526 nm
λbs2 ([1]; solvent THF): 408 nm
λem ([1]; solvent THF): 590 nm
ε1 (molar extinction coefficient) ([1]; solvent Water): 3.6 cm^−1M
ε2 (molar extinction coefficient) ([1]; solvent Water): 1.7 cm^−1M
λabs1 ([1]; solvent Water): 527 nm
λbs2 ([1]; solvent Water): 416 nm
λem ([1]; solvent Water): 619 nm
change of fluorescence intensity by interaction with protein (BSA) [2]: largely increased
Φ1 (fluorescence quantum yield) ([3]; solvent DCM): 0.115
Φ2 (fluorescence quantum yield) ([3]; solvent DCM): 0.032
Φ1 (fluorescence quantum yield) ([3]; solvent DMSO): 0.020
Φ2 (fluorescence quantum yield) ([3]; solvent DMSO): 0.009
Φ1 (fluorescence quantum yield) ([3]; solvent Ethanol): 0.014
Φ2 (fluorescence quantum yield) ([3]; solvent Ethanol): 0.009
Φ1 (fluorescence quantum yield) ([3]; solvent Methanol): 0.007
Φ2 (fluorescence quantum yield) ([3]; solvent Methanol): 0.004
Φ1 (fluorescence quantum yield) ([3]; solvent THF): 0.053
Φ2 (fluorescence quantum yield) ([3]; solvent THF): 0.008
Φ1 (fluorescence quantum yield) ([3]; solvent Water): 0.002
Φ2 (fluorescence quantum yield) ([3]; solvent Water): 0.001
SMILES: CCN1/C(=C/C=C/C(N)=C/C2=[N+](CC)c3ccccc3C2(C)C)C(C)(C)c2ccccc21 [Dye IIa]
change of fluorescence by interaction with ct-DNA [4]: little fluorescence increase
